In one series the test system is ER+ MCF7 xenograft. The series can be described thus: MCF-7 breast cancer xenograft model. Type of series: in vivo, mice. The note with it: for tumor growth inhibition (TGI): after 27 days of treatment. On the procedure:
Tumors were measured every 3 to 4 days during treatment for up to 20 days post-treatment. […] South Texas Accelerated Research Therapeutics (START; San Antonio, Texas) evaluated the antitumor activity of G1T38 in a START Cell-Based Xenograft (START-CBX) tumor model, MCF-7, representing human breast cancer. Data collected from this efficacy study included animal weights, observations, and tumor dimensions. This information was used to determine agent tolerability based on weight change and gross physiologic changes, and anticancer activity based on tumor growth inhibition or regression. Study endpoint was Day 60. MCF-7 cells were harvested from culture and injected into immune-deficient mice and the study initiated at a mean tumor volume of approximately 150-250 mm^3. […] Tumor growth inhibition (%TGI) was calculated using the following equation: %TGI=(1-(((TVtmtfinal-TVtmtinitial))/((AVERAGE(TVctlfinal))-(AVERAGE(TVctlinital)))))*100.

In a further series the test system is H1975 xenograft. Nature of the series: H1975 NSCLC xenograft model. It is filed as in vivo, mice. An excerpt: To evaluate the efficacy of G1T38 in combination with EGFR inhibitors, the H1975 xenograft model was utilized. H1975 is a human NSCLC that harbors the […] mutations rendering resistance to erlotinib treatment.
Afatinib is an irreversible second generation pan-ErbB inhibitor developed as a first-line treatment of patients with metastatic NSCLC whose tumors harbor EGFR mutations or deletions as well as in patients with metastatic disease that progressed after platinum-based chemotherapy.
Female NCI Ath/nu mice were implanted with H1975 NSC lung adenocarcinoma model. Once tumors reached an average size of 100- 150 mm^3, mice were randomized into treatment cohorts. Mice were orally administered daily afatinib (20 mg/kg, Genentech/OSI), erlotinib (70 mg/kg, LC Labs), or G1T38 (50 or 100 mg/kg), as single agents or in combination (G1T38 + erlotinib or G1T38 + afatinib) for the duration of the study. Tumors were measured twice weekly until mice reached tumor burden of 1500 mm^3.

Details of series [1]: method as in earlier work. The note with it: Mouse; cited from earlier work.
Details of series [2]: method as in earlier work. The conditions noted are these: Rat; cited from earlier work.
Details of series [3]: method as in earlier work. The note with it: Dog; cited from earlier work.
For series [4] the following is noted: cited from earlier work.
The nature of the next series: 7-day continuous oral PK. The note with it: C57BL/6, mouse, plasma.
For a further series, the system named is neutrophils. The series can be described thus: Peripheral blood analysis, 28 days daily oral dosing.

Where two headings read alike, the source gives them in different places.

In the case of `CC/C(=C(\c1ccccc1)c1ccc(/C=C/C(=O)O)cc1)c1ccccc1` [GW5638, reference compound], in the series with ER+ MCF7 xenograft (G1T38 25 or 50 mg/kg alone, GW5638 25 mg/kg alone), the “TGI as single agents (GW5638 study)” value was “modest TGI”.
`CN(C)C/C=C/C(=O)Nc1cc2c(Nc3ccc(F)c(Cl)c3)ncnc2cc1O[C@H]1CCOC1` [afatinib, reference compound]: in the series on H1975 xenograft (afatinib only cohort, 20 mg/kg), the “time at which tumors began to regrow” value was no more than 14 days.
For the compound `C#Cc1cccc(Nc2ncnc3cc(OCCOC)c(OCCOC)cc23)c1` [erlotinib, reference compound], in the series with H1975 xenograft (70 mg/kg daily), the “difference from vehicle treated mice” value was “no significant difference”.
With `CC(=O)c1c(C)c2cnc(Nc3ccc(N4CCNCC4)cn3)nc2n(C2CCCC2)c1=O` [palbociclib], the “tumor growth inhibition (TGI)” value in the series on ER+ MCF7 xenograft (10 mg/kg once daily oral) is 18%; in the series with ER+ MCF7 xenograft (50 mg/kg once daily oral) it was 66%; in the series on ER+ MCF7 xenograft (100 mg/kg once daily oral), 87%. For the same compound, the “time to tumor regression” value with ER+ MCF7 xenograft (100 mg/kg daily oral) was no more than 10 days. For the same compound, the T1/2 is 2.5 to 4.2 h in series [1], 2.4 to 4.9 h in series [2], 20.7 h in series [3] and 29 h in series [4] (Human). The half-life in series [4] (in humans) was greater than 24 h. The concentration at 24 h in the series “7-day continuous oral PK” is roughly 600 nM. In the series on neutrophils, the “decrease in neutrophils compared with G1T38” value is given as “similar”.

By half-life is commonly meant the time in which the quantity being followed falls by half.

The values are drawn from paper PMC5522071, “Preclinical development of G1T38: A novel, potent and selective inhibitor of cyclin dependent kinases 4/6 for use as an oral antineoplastic in patients with CDK4/6 sensitive tumors” (Oncotarget, 2017).
